Test results as given in publication PMC12858405, “Ideal efficacy photoswitching for chromocontrol of TRPC4/5 channel functions in live tissues” (Nature Chemical Biology, 2026).

Legend:
TRPC4β-I575V-SYFP2 = biological target: T1, TRPC4β-I575V-SYFP2 (Homo sapiens, UniProt Q9UBN4, I575V); experiment: Fura-2 [Ca2+]i recordings, HEK 293 transiently expressing TRPC4β-I575V-SYFP2; format: cell-based; settings: AzHC 10-1000 nM, AM237 100 nM
T1 construct: expressed in transfected cells; host or cells: HEK 293 (ATCC CRL 1573), transiently transfected (jetPRIME)
T1 sequence (Q9UBN4 other isoform, or with tags, fused parts or gaps I575V): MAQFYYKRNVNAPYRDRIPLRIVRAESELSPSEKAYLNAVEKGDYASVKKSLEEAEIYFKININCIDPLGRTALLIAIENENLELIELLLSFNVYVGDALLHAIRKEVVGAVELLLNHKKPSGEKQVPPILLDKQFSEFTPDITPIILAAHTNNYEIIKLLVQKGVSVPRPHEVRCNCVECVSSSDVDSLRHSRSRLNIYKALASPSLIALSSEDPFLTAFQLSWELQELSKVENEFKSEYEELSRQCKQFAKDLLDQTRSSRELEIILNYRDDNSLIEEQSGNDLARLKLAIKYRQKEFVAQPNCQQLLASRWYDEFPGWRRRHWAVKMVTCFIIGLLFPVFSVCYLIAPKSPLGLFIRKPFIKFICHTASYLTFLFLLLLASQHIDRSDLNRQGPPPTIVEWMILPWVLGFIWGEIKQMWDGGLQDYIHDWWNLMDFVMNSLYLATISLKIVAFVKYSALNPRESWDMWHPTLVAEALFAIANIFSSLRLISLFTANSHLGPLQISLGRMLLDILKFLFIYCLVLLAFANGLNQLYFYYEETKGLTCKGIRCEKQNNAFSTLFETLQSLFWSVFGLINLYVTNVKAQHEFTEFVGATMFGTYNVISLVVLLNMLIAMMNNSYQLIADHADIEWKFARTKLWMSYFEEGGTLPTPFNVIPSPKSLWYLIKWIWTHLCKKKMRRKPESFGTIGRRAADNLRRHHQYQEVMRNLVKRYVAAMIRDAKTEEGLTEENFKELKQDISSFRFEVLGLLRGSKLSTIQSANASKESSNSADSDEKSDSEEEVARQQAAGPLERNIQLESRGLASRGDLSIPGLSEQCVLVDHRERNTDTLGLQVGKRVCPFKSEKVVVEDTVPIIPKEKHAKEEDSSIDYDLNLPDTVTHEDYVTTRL
Source text: Müller, Niemeyer, et al., Schaefer & Thorn-Seshold 2025: Ideal Efficacy Photoswitching of TRPC4/5 in Tissue […]
1.4.3 Note on TRPC4 / TRPC5 Sequence Alignment
The key contact residues of interest in the ligand binding site are highly conserved between TRPC4 and TRPC5. The relevant sequences in the site are: […]
1.4.4 Differences and selectivity between TRPC5 and TRPC4?
AM237 activates TRPC5 but inhibits EA mediated activation of TRPC4; Pico145 inhibits both TRPC4 and TRPC5. Thus, somewhat naively, it could be argued that it is the para substituent here which affects both the efficacy mode and the selectivity for TRPC4 and/or TRPC5.
Intriguingly, Z-AzPico activates TRPC4 and TRPC5 with low nanomolar potency whereas Z-AzHC only activates TRPC5 but not TRPC4. Therefore, the meta substituent is now responsible for the selectivity in this case. The cryo-EM structures of Pico145 and HC-070 in complex with TRPC5 indicated the same binding site but the southern phenyl ring bearing the OCF3/Cl group is flipped and pointing in opposite directions.
Z isomers, i.e. Z-buried vs. E-projected. Additionally, both E-AzPico and E-AzHC inhibit EA […]
Intracellular calcium ([Ca2+]i) was measured using the ratiometric Ca2+ dye Fura-2. […]

heteromeric TRPC5:TRPC1 = biological target: T2, heteromeric TRPC5:TRPC1 (Homo sapiens, UniProt Q9UL62); experiment: Whole-cell recordings, HEK293 co-expressing TRPC5 and TRPC1; format: cell-based; settings: 10 nM
T2 construct: expressed in transfected cells; host or cells: HEK293, transiently transfected
T2 sequence (Q9UL62 whole entry): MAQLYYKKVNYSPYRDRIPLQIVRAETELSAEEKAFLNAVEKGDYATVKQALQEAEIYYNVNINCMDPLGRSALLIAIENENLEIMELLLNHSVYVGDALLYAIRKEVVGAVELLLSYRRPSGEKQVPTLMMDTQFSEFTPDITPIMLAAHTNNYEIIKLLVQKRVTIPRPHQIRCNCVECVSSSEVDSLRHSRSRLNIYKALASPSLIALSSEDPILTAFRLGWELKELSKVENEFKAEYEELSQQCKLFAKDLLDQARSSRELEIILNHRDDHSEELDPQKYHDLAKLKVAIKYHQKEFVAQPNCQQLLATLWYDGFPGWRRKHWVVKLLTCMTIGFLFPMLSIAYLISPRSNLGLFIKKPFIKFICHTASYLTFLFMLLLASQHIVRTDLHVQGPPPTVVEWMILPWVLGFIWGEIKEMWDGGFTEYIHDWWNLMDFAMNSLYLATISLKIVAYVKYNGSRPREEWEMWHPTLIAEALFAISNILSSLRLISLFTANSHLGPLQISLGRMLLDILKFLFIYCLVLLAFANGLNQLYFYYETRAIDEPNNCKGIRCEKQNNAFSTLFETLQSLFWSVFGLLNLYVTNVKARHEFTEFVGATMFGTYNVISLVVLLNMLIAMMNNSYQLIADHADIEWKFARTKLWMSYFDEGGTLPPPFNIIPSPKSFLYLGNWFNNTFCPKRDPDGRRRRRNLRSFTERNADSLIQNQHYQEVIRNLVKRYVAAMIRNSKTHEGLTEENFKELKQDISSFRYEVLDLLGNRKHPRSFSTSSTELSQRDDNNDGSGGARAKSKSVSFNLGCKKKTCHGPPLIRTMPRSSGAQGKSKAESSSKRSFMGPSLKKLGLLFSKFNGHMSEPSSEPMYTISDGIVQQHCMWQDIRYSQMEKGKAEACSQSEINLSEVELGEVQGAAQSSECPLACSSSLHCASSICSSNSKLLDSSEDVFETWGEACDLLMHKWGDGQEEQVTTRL
T2 sequence (P48995 whole entry partner): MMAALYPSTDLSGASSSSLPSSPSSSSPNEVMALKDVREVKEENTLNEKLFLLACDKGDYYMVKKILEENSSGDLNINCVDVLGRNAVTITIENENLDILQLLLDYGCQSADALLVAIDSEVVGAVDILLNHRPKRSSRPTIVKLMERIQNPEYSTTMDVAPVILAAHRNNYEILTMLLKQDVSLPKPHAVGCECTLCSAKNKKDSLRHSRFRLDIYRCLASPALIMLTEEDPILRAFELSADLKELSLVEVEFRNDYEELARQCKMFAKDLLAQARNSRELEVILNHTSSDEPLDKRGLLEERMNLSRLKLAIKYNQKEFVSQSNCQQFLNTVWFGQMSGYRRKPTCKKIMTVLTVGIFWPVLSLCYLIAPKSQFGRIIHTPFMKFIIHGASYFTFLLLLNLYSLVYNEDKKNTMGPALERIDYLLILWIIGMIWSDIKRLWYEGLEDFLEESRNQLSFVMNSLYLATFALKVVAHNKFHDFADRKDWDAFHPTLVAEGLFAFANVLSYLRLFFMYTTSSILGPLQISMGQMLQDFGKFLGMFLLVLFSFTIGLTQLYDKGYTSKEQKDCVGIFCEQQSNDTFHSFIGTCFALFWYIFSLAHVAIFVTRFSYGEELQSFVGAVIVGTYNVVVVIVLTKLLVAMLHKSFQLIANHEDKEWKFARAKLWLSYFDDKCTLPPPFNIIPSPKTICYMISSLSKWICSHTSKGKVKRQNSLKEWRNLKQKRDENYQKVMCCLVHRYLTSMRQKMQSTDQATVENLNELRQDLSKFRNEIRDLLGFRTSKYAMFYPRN
Source text: Müller, Niemeyer, et al., Schaefer & Thorn-Seshold 2025: Ideal Efficacy Photoswitching of TRPC4/5 in Tissue 3.3 Activation of heteromeric TRPC4:TRPC1 and TRPC5:TRPC1
Supplementary Figure 15: Photoswitching of ionic currents through heteromeric TRPC4:TRPC1 and TRPC5:TRPC1 channel complexes. Whole cell recordings from HEK293 cells that were transiently transfected to express the indicated TRPC isoforms were obtained in the whole cell mode with a voltage and photoswitching paradigm as illustrated in (A). (B-D) Superimposed recordings of 20 consecutive sweeps are shown for cells that ony express TRPC4 or TRPC5 (left), and for cells that co-express the respective TRPC channel along with TRPC1 (right). Note the characteristic change of the current-voltage relationship with smaller inward currents and stronger outward rectification in cells that co-express TRPC1. […]
or 10 nM (all other panels). The data shown are representative for 4-12 patched cells, each.
Currents through heteromeric complexes that are composed of TRPC4:TRPC1 or TRPC5:TRPC1 subunits can be unequivocally recognized on the basis of their unique biophysical properties with smaller unitary and global inward current amplitudes and a marked outward rectification.44 We show […]
also the heteromeric complexes TRPC5:TRPC1 and TRPC4:TRPC1 that are formed upon co-expression with TRPC1 (Supplementary Fig. 15). […]

Cn1c(=O)n(CCCO)c(=O)c2c1nc(Oc1ccc(Cl)c(OC(F)(F)F)c1)n2Cc1ccc(Cl)cc1 [AM237, reference compound]
Effect on [Ca2+]i, TRPC4I575V (TRPC4β-I575V-SYFP2): do not activate

Cn1c(=O)n(CCCO)c(=O)c2c1nc(Oc1ccc(N=Nc3ccccc3)c(Cl)c1)n2Cc1ccc(Cl)cc1 [AzHC]
Chromocontrol over heteromeric TRPC5:TRPC1 currents versus homomeric channels (heteromeric TRPC5:TRPC1): comparable chromocontrol

Cn1c(=O)n(CCCO)c(=O)c2c1nc(Oc1ccc(N=Nc3ccccc3)c(OC(F)(F)F)c1)n2Cc1ccc(Cl)cc1 [AzPico]
Chromocontrol over heteromeric TRPC5:TRPC1 currents versus homomeric channels (heteromeric TRPC5:TRPC1): comparable chromocontrol

Cn1c(=O)n(CCCO)c(=O)c2c1nc(Oc1ccc(/N=N\c3ccccc3)c(Cl)c1)n2Cc1ccc(Cl)cc1 [Z*-AzHC]
Effect on [Ca2+]i, TRPC4I575V (TRPC4β-I575V-SYFP2): do not activate
